The text below walks through data of patent US20260294922A1, “Inhibitors of JUN N-Terminal Kinases (JNK1, JNK2, and/or JNK3) and Mitogen-Activated Protein Kinases (MAPK8, MAPK9, and/or MAPK10) and Methods of Using Same” (Baylor College of Medicine, priority 2023, published 2026).

In assay [1] the target is T1, ERK1 (Homo sapiens, UniProt P27361).
T1 construct: purchased ThermoFisher (SelectScreen, outsourced service)
Briefly: ThermoFisher SelectScreen, ERK1. It counts as binding.

For assay [2], the system named is iHEEC. Briefly: Cell morphology, phospho-JNK and vimentin staining in iHEEC. It counts as cell-based, human. The source says:
FIGS. 28A-28C depict the impact of JNK inhibition on the cellular morphology and expression of surface marker, vimentin in iHEEC. […] Phospho-JNK staining in iHEEC can be either punctate staining in intracellular organelles or disperse staining through the cytoplasmic space of cells.

The structures appear in SMILES notation.

T1 sequence (P27361 whole entry): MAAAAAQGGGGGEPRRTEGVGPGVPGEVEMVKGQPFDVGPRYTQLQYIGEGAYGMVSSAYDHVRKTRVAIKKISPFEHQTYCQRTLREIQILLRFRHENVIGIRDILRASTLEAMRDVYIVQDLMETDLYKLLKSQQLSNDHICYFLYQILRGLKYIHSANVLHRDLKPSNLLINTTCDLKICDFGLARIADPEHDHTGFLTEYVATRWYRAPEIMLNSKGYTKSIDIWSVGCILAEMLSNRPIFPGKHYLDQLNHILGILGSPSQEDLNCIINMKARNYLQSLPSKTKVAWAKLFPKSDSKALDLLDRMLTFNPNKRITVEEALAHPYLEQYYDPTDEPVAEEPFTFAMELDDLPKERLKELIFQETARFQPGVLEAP

`CN(C)C(=O)c1cc(NC(=O)c2cc3c(-c4cnc5[nH]ccc5c4)cccc3s2)ccc1O` [CDD-2728, N-(3-(dimethylcarbamoyl)-4-hydroxyphenyl)-4-(1H-pyrrolo[2,3-b]pyridin-5-yl)benzo[b]thiophene-2-carboxamide] gave a Kd in assay [1] of 909 nM. In assay [1] (ERK1/2, in words), the “inhibition of ERK1/2” value is given as “only modest inhibition of ERK1/2”. In addition, in assay [2], the phospho-JNK staining result was “reduce the intensity of phospho-JNK staining” and the vimentin staining entry is on record as “not a dramatic change in the vimentin staining”.

As a reminder, the Kd is the concentration at which binding is half-saturated. The low end stands for a tighter complex, the high end for a looser complex.
